Assay results taken from a melting point compilation (Tetko et al.; mined from patent text by program, amines drawn as free bases though some values may be those of a salt).

SMILES | melting point [°C]
CCOC(=O)C(=CNc1ccc(F)c(F)c1O)C(=O)OCC | 178 to 180
C[C@H]1C[C@@](O)(c2cnc(Sc3ccc4c(c3)CC(=O)N4C)s2)CCO1 | 140
CN1CCN(C(=O)c2cnc(S)n2Cc2cc(F)cc(F)c2)CC1 | 243 to 244
COc1ccc(C(=O)c2ccc(OCc3ccccc3)nc2)c(OC(C)(C)C(=O)OC(C)(C)C)c1 | 58 to 60
COC(=O)c1ccc(SCc2c(O[C@H](Cn3ccnc3)c3ccccc3)ccc3c2CCCC3=O)cc1 | 75
CCCC(NS(=O)(=O)NC(=O)OCc1ccccc1)C(=O)OC (centres undefined) | 76 to 78
Cc1cc(C)cc(Oc2c(C=O)c(C)[nH]c(=O)c2I)c1 | > 260
CCN1C(=O)NC(=C(C(C)=O)C(C)=O)C1=O | 152 to 153
c1cc(Oc2ccc3c(c2)CCCN3)ccn1 | 117 to 122
Cc1ccncc1-n1nc(C)c(CC(=O)O)c1-c1ccccc1 | 246
CCOC(=O)CSc1ccc([N+](=O)[O-])cc1 | 43 to 45
CN(C)c1ccc(C=Cc2ccc(S(C)(=O)=O)cc2)cc1 | 242 to 243
NC(=O)c1[nH]c2ccccc2c1-c1ccc(NS(=O)(=O)c2cccc(Cl)c2Cl)cc1 | > 260
N=C(NO)c1ccc(-c2cnc(-c3ccc(C(=N)NO)cc3)nc2)cc1 | 290 to 292
c1cnn(-c2ccnc(-n3cccn3)n2)c1 | 152 to 153
Cc1cc(C)nc(NC(=O)NS(=O)(=O)C2CCCCCCCCCCC2Cl)n1 (centres undefined) | 84
COC(=O)C1CC(O)C(=O)N1 (centres undefined) | 85 to 86
COc1ccc(NC(=S)N2CCn3c(c(C(N)=O)c(Cl)c3-c3ccccc3)C2)cc1 | 176 to 178
Cc1cc2c(cc1C)C(c1ccccc1)(C(F)(F)F)c1cc(C)c(C)cc1O2 | 214 to 215
CCOC(=O)c1cn2c3c(ccc(OC)c3c1=O)OCC2C (centres undefined) | 165 to 168
Cc1cc(-c2cccc(C(F)(F)F)c2)c2ncc(OCC(F)(F)F)nc2c1 | 114 to 117
O=C(O)CCCCCCCCN1NC(c2ccccc2)=C(c2ccccc2)NC1=O | 97 to 100
O=C(O)CCc1cn(Cc2ccc(OCc3cccs3)cc2)cc1-c1ccccc1 | 127 to 128
CCOC(=O)c1[nH]c2cc(Cl)cc(Cl)c2c1NCC(=O)c1ccccc1 | 143 to 144
COc1ccccc1CC(=O)N1C[C@H]2C[C@H](CO)C[C@](O)(c3ccccc3OC)[C@H]2C1 (racemic) | 162

SMILES | melting point [°C]
Nc1nnc(-c2cc(Cl)cc(Cl)c2O)s1 | 268
O=C1N=C(Cc2c[nH]c3ccccc23)C(CCc2cc(C(F)(F)F)cc(C(F)(F)F)c2)O1 (centres undefined) | 178 to 180
C=CCN1CCC=C(c2csc(N)n2)C1 | 129 to 132
CCCCN1C(=O)NC(Cc2cc(OC)c(OC)cc2OC)C1=O (centres undefined) | 122
N#Cc1ncc(SCC(=O)O)nc1C#N | 141 to 143
CCOC(=O)[C@H](CSC(=O)c1ccccc1)NC(=O)c1ccccc1 | 81
CSc1nc(-c2ccc(O)cc2)n(C)n1 | 216 to 220
CCC(=S)Nc1c(SC(F)(F)F)c(C#N)nn1-c1c(Cl)cc(C(F)(F)F)cc1SC | 153 to 155
O=C1[C@H]2CCC[C@H]2Nc2ccc(F)cc2N1Cc1ccccc1 (relative stereo) | 124 to 126
COc1cc(C)cc(C(O)=S)c1OC | 139 to 141
CCOC(=O)c1cc(=O)c(Sc2ccccc2)co1 | 79 to 81
COCCOc1ccc(Nc2nc(Nc3cc4c(cc3OC)CCN(CC(=O)N(C)C)CC4)ncc2Cl)c(S(=O)(=O)C(C)C)c1 | 65 to 75
O=C(O)CC1CCN(Cc2ccccc2)C1c1c(Cl)cccc1Cl (centres undefined) | 186 to 188
CCOC(=O)Cc1ccc2c(c1)C(=O)c1cc(Cl)ccc1CS2 | 68 to 71
CCOP(=O)(Cc1ccc(C(=O)O)s1)OCC | 77 to 78
O=C1SC(Cc2ccc(OCCn3ccc4ccccc43)cc2)C(=O)N1C(c1ccccc1)(c1ccccc1)c1ccccc1 (centres undefined) | 63.5 to 65.9
COC(=O)c1ccc(-c2cn(Cc3cccnc3)c3c2CCc2nc4c(nc2-3)C(C)(C)CCC4(C)C)cc1 | 245 to 247
O=C(OC1CCCCC1)c1ncn2c1[C@@H]1CCN1C(=O)c1c(I)cccc1-2 | 124 to 125
O=C(NN=Cc1ccc(Br)cc1)c1[nH]c2ccccc2c1Cc1ccccc1 | 227 to 229
C=CC(=O)NC(=O)NCCCl | 156 to 158
N#Cc1ccc(N(Cc2ccc(OCc3ccccc3)cc2)n2cnnc2)cc1 | 206 to 211
CN1C(=O)CN(C(=O)NC2C3CC4CC(C3)CC2C4)C(c2ccccc2)c2ccccc21 (racemic) | 243 to 244
CCOc1cc(C=C2SC(=S)N(N(C)C)C2=O)ccc1O | 194 to 198
CCCc1nn(C)c(C(N)=O)c1NC(=O)c1cc2cccc(OCC)c2o1 | 219 to 221
Fc1cc(Cl)ccc1-n1nc2c(c1Cl)CCCC2 | 82 to 85

SMILES | melting point [°C]
CN1CCC(C)(c2nc(-c3ccncc3)c(-c3ccc(F)cc3)[nH]2)CC1 | 227 to 229
OCc1ccc(Nc2nc(Oc3ccccc3)nc(Oc3ccccc3)n2)cc1 | 152 to 154
O=C(O)Cc1c(C(=O)c2cc3ccccc3cn2)[nH]c2ccc(Cl)cc12 | 239 to 240
O=[N+]([O-])c1ccc2c(c1)C=Cc1ccc(Br)cc1S2 | 190 to 192
COc1cc2c(cc1OC)-c1c(C)nc(Nc3c(C)cccc3C)n1CC2 | 234 to 236
COc1ccc2cc(-c3cnc(-c4ccccc4)o3)ccc2c1 | 149 to 151
COc1ccc2c(c1)C(c1ccc(N)cc1)=NN(C(C)=O)C(C)C2 (centres undefined) | 237 to 238
CCOC(=O)NC(=S)SCc1ccc(Cl)cc1 | 80
COc1cc(OC)nc(N(C)C(=O)NS(=O)(=O)c2ccccc2OC(F)(F)F)n1 | 162
CCCCCC(=O)N(NC(=O)c1ccccc1)C(C)(C)C | 117 to 118
Clc1ccc(OCc2nc3c(OCc4ccccc4)cccc3n2CCCC2CCN(CCCN3CCCCC3)CC2)cc1 | 58 to 60
COc1ccc(C(=O)c2ccc(OCc3ccccc3)cc2)c(O)c1 | 124 to 125
O=C1CCCc2ccc(O)cc21 | 170 to 173
CN1C(=O)CCC(C)(C)c2ccc(NC(=O)c3ccc(C(=O)O)cc3)cc21 | > 250
O=c1[nH]c(=O)n(CCCCN2CC=C(c3ccc(Cl)cc3)CC2)c2ccccc12 | 162 to 166
NP(N)(=O)NC(=O)c1ccc2ccccc2c1 | > 400
CC(C)CC(C(=O)O)C(=O)O | 102 to 105
O=c1n(CCO)c2ccccc2n1CCO | 145 to 158
O=c1[nH]c2cc(Cl)ccc2c(=O)c2c(C(F)(F)F)n[nH]c12 | 334 to 336
O=C(CSc1cccc(Br)c1)c1ccc2[nH]c3ncc(Cl)cc3c2c1 | 229 to 230
N#Cc1c(Cl)[nH]c2cccnc12 | > 250
COc1cc2c(cc1OCc1ccccc1)C1Cc3c(Cl)cc(OC)c(OCCOCCO)c3CN1CC2 (centres undefined) | 122
Cn1nc(C(F)(F)F)cc1Oc1cccc(-c2nc(C(F)(F)F)no2)n1 | 91 to 93
c1ccc(-c2onc3ccc(Oc4ccc5noc(-c6ccccc6)c5c4)cc23)cc1 | 158 to 165
O=C(O)Cc1ccc(OCCNC(=O)C2Cc3ccccc3N2S(=O)(=O)c2ccc(-c3cc(C(F)(F)F)ccc3F)cc2)cc1 (centres undefined) | 81 to 84

SMILES | melting point [°C]
CCOP(=O)(CCN1CCC(N(NCCN2CCCC2)S(=O)(=O)c2ccc(Nc3nccc(Nc4ccc(F)cc4)n3)cc2)CC1)OCC | 85
CC1=C(c2cccc(Cl)c2)n2ncc(C#N)c2N(C(=O)CCl)C1 | 132 to 135
CN(CCCNC1=CC(=O)c2scnc2C1=O)CCCNC1=CC(=O)c2scnc2C1=O | 223 to 224
Cc1cc(-n2cc(C#N)nc2C)cc2ccc(=O)[nH]c12 | > 350
OC(CCl)(Cc1ccc(Cl)cc1Cl)c1ccc(-c2ccccc2)cc1 (centres undefined) | 84
O=C1N(CCc2noc(C(F)(F)F)n2)c2ccccc2C12COc1cc3c(cc12)OCO3 (centres undefined) | 45 to 48
CCCCC(=O)NCCc1ccc(S(=O)(=O)NC(=O)c2ccc(C(=O)OC)nc2)cc1 | 178 to 180
CC(C)Oc1cc(COc2cc(CCC(=O)O)n(-c3ccccc3)n2)cc(COc2ccc(Cl)cc2Cl)c1 | 108 to 110
NP(N)(=S)N1CCCCC1 | 97 to 102
COC(=O)CSc1nc(N2CCN(c3ncccn3)CC2)ncc1[N+](=O)[O-] | 250 to 252
Cc1c(NC(=O)c2ccc(-c3ccc(Cl)cc3)c(F)c2)ccc2cc(CN3CCCC3)cnc12 | 190 to 192
Cc1ccc(C(c2cc(C(C)(C)C)cc(C(C)(C)C)c2O)N(C)C)cc1C (centres undefined) | 82 to 85
CCOC(=O)Cc1cccc(C(=O)c2ccc(Cl)cc2)c1N | 101 to 102
Cn1nc(C(F)(F)F)cc1Oc1nc(Oc2cc(C(F)(F)F)nn2C)c(F)c(Oc2cc(C(F)(F)F)nn2C)c1F | 119
O=C(c1ccc(Cl)c([N+](=O)[O-])c1)c1ccc(F)cc1F | 90.5
COC(=O)c1ccc(C(C(N)=O)C(C)c2cc([N+](=O)[O-])ccc2N2CCCCC2)cc1 (centres undefined) | 178 to 180
O=P(c1ccccc1)(c1ccccc1)C(O)c1c(Cl)cccc1Cl (centres undefined) | 205 to 209
CCCc1ccc(OCCN(C(=O)n2cccn2)c2ncnc3ccccc23)c(C)c1 | 114 to 115
COCCOc1ccccc1S(=O)(=O)NC(=O)Nc1nc(Cl)cc(OC)n1 | 166 to 168
O=Cc1c(Cl)cc(CO)cc1Cl | 109 to 110
C#Cc1cccc(-c2cccc([N+](=O)[O-])c2-c2cc(C#C)ccn2)c1 | 130 to 132
COc1cc2c(cc1OC)C(=O)C(c1ccc(F)cc1)C2 (centres undefined) | 189 to 191
NC(=O)c1ccc(NC2CCCN(Cc3ccccc3)CC2)c(Cl)c1 (centres undefined) | 174 to 175
NCC(=O)NCC(=O)Nc1ccc(Cl)cc1C(=O)c1ccccc1 | 136 to 138
